Patent US10994015B2, “EGFR proteolysis targeting chimeric molecules and associated methods of use” (Arvinas Operations, Inc., priority 2016, dated 2021)
pIC50: −log10 of the molar value.

What was measured:
[1] = target: EGFR L858R/T790M/C797S triple mutant (H520*) (Homo sapiens (Human), UniProt P00533, C797S/L858R/T790M); experiment: EGFR protein degradation assay (Western blot); format: cell-based; details: 72 hours, 300 nM to 10 nM
Procedure: (§1) EGFR Protein Degradation assay
Cells were incubated overnight at 37° C., 5% CO2 prior to compound addition. A 10 mM compound stock in DMSO was serially diluted in DMSO to provide the following stock concentrations: 1, 0.3, 0.1, 0.03 and 0.01 mM. An appropriate volume of each compound dilution, together with a DMSO vehicle control, was added to media to provide a 2× compound solution. […] At the end of the compound treatment, cells were washed once with ice-cold phosphate-buffered saline (PBS) and treated with lysis solution (1× lysis buffer, Cell Signaling Technologies (CST #9803) supplemented with Piarce™ protease inhibitors, #A32953, Thermo Fisher Scientific, TFS). Lysates were collected and clarified of cell debris by spinning at 10K rpm for 10 minutes. A specific volume of supernatant was retrieved for protein quantification (Pierce™ BCA kit, TFS #23225) and for Western analysis. Loading buffer supplemented with EDTA and reducing agent was added to each supernatant. A specific volume of supernatant (determined by protein assay: […] loaded per sample) was loaded into a NuPAGE™ 4-12% Bis-Tris gel (TFS). Samples were run at 165V in MOPS running buffer for 2 hours and then transferred to PVDF blotting membrane using a dry blotting system (iBlot2, TFS). Membranes were blocked in Tris-buffered saline supplemented with Tween, 0.1% (TBST) containing 5% non-fat dry milk, (AmericanBio). Following block, membranes were washed once with TBST. […] Membranes were washed 3× with TBST prior to addition of secondary antibody (1:10 000, anti-rabbit HRP-linked, CST #7074) in TBST with 3% BSA and then incubated at room temperature for one hour. Membranes were then washed 3× with TBS and signal developed by exposure to developer (SuperSignal West Femto, TFS) for 5 minutes. Membranes were then immediately imaged using a BioRad Chemidoc.

EGFR Exon20NPG = EGFR Exon20NPG (Homo sapiens (Human), UniProt P00533, INS770NPG); experiment: TR-FRET assay for ERBB kinases; format: biochemical; details: geometric mean if measured more than once
Chain of EGFR Exon20NPG (P00533 other isoform, or with tags, fused parts or gaps del 1-694/ins NPG behind 770 limits assumed): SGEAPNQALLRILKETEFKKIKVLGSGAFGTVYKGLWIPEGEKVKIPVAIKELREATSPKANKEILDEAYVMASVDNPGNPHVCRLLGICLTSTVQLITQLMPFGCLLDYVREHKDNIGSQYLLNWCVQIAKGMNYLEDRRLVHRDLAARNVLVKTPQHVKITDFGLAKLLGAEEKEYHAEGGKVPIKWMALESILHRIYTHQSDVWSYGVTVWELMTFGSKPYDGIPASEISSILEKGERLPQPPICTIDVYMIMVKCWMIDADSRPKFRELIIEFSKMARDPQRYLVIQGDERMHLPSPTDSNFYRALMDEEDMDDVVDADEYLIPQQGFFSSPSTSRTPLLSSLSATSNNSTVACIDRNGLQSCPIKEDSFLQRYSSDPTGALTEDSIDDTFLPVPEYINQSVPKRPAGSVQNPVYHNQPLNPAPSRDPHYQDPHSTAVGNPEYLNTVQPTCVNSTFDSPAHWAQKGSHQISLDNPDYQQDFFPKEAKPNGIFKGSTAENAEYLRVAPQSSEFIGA
Procedure: (§2) TR-FRET Assay for ERBB Kinases
(§3) All compounds and PROTACs were serially diluted in three-fold increments using 100% DMSO, followed by an intermediate 10-fold dilution using Buffer A (50 mM HEPES, pH 7.5, 50 mM NaCl, 10 mM MgCl2, 1 mM DTT, and 0.1% Pluronic F-68). Two microliters of serially diluted compound or PROTAC were then transferred to black 384-well Proxiplates (PerkinElmer, #6008260) using an Integra Viaflo96. Next, 10 uL of protein kinase in Buffer A was added to each well of the assay plate and pre-incubated with compound for 10 minutes. Kinase reactions were then initiated by addition of 5 uL substrate mix containing 3 mM ATP and 30 uM fluorescein-labeled Poly-GluTyr (Thermo Fisher, #PV3610) in Buffer A and allowed to proceed for 10 minutes at room temperature. Reactions were quenched by addition of a 5 uL mixture containing 5 nM LanthaScreen® Tb-pY20 Antibody (Thermo Fisher, #PV3552) and 40 mM EDTA in Buffer A. Assay plates were then read using a Synergy2 (Biotek Instruments, Winooski, Vt.) via excitation thru a 340/20 nm bandpass filter and emission collected thru 490/10 nm (donor) and 520/25 nm (acceptor) bandpass filters.

EGFR WT = EGFR WT (Homo sapiens (Human), UniProt P00533); experiment: TR-FRET assay for ERBB kinases; format: biochemical; details: geometric mean if measured more than once
Procedure: as §2
as §3, with “Two microliters of serially diluted compound or PROTAC were then transferred to black 384-well Proxiplates (PerkinElmer, #6008260) using an Integra Viaflo96.” left out

EGFR L858R/T790M/C797S = EGFR L858R/T790M/C797S (Homo sapiens (Human), UniProt P00533, C797S/L858R/T790M); experiment: TR-FRET assay for ERBB kinases; format: biochemical; details: geometric mean if measured more than once
Chain of EGFR L858R/T790M/C797S (P00533 25-1210 T790M/C797S/L858R): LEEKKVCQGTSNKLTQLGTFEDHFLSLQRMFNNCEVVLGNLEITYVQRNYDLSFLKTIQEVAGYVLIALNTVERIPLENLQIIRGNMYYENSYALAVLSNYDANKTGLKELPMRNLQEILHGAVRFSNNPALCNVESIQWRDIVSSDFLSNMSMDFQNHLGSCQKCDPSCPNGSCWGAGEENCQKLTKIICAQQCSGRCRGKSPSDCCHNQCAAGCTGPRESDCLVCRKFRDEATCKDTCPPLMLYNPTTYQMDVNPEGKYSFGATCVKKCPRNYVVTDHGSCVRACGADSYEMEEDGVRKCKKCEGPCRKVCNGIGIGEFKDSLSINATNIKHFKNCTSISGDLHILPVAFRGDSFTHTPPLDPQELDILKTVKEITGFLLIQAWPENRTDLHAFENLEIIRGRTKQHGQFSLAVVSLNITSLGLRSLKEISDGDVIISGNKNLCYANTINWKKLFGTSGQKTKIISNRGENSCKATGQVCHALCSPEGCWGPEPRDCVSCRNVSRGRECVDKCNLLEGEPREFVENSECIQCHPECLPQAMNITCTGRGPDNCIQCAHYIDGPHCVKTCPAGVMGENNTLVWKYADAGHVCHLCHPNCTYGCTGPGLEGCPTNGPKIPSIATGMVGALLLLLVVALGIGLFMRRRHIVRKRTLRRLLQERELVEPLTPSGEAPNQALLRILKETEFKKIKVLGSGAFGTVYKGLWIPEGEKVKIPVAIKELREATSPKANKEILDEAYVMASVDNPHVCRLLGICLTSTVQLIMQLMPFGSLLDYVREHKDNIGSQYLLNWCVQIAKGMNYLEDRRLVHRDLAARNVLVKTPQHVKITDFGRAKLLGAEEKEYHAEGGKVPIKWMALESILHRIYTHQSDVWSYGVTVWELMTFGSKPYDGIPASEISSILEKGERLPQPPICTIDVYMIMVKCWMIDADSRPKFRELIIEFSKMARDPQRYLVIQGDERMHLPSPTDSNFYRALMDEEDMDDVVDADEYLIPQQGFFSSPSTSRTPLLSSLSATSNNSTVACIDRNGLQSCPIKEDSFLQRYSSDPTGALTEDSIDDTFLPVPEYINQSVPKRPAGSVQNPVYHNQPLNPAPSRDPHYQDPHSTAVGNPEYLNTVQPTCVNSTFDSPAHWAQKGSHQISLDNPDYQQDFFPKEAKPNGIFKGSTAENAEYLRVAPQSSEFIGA
Procedure: as §2
as §3, with “Two microliters of serially diluted compound or PROTAC were then transferred to black 384-well Proxiplates (PerkinElmer, #6008260) using an Integra Viaflo96.” left out

EGFR L858R/T790M = EGFR L858R/T790M (Homo sapiens (Human), UniProt P00533, L858R/T790M); experiment: TR-FRET assay for ERBB kinases; format: biochemical; details: geometric mean if measured more than once
Chain of EGFR L858R/T790M (P00533 25-1210 T790M/L858R): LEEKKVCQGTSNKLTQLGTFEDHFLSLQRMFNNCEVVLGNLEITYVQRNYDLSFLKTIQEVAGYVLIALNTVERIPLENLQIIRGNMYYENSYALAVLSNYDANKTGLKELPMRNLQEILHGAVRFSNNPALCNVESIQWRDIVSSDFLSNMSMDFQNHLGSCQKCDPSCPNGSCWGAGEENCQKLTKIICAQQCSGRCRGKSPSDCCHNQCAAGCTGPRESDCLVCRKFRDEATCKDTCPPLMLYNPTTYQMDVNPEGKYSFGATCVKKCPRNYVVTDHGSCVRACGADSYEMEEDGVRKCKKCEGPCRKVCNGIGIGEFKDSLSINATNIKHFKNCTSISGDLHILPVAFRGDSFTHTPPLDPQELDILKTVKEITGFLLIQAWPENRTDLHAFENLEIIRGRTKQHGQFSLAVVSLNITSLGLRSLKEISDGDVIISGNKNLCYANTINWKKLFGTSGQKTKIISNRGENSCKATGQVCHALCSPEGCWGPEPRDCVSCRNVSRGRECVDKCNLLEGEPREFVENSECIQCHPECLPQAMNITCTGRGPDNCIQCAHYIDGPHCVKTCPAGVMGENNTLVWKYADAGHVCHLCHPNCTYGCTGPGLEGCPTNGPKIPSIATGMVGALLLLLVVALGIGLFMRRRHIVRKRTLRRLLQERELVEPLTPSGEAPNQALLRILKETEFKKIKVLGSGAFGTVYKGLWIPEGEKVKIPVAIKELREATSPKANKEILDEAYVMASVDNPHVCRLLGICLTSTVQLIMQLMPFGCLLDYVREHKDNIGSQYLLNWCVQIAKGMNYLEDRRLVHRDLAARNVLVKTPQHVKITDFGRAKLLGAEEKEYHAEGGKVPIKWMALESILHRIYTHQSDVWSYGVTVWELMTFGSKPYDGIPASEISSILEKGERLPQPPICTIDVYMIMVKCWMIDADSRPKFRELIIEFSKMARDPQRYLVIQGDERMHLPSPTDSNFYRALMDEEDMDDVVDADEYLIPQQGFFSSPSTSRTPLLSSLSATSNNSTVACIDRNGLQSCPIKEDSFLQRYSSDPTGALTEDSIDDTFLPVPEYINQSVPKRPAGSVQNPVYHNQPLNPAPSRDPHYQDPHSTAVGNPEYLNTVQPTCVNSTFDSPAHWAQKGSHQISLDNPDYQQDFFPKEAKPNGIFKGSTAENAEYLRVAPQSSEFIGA
Procedure: as §2
as §3, with “Two microliters of serially diluted compound or PROTAC were then transferred to black 384-well Proxiplates (PerkinElmer, #6008260) using an Integra Viaflo96.” left out

[2] = target: EGFR L858R/T790M double mutant (H1975) (Homo sapiens (Human), UniProt P00533, L858R/T790M); experiment: EGFR protein degradation assay (Western blot); format: cell-based; details: 72 hours, 300 nM to 10 nM
Procedure: as §1
Cells expressing the appropriate form of EGFR were seeded in 6-well plates (300,000 cells per well) and allowed to adhere to the plate overnight. […] To harvest cells, media was removed and cells were washed once with ice-cold phosphate-buffered saline (PBS) prior to the addition of 400 μl lysis buffer (Cell Signaling Technology) supplemented with a protease inhibitor cocktail (Thermo Scientific). Cells were scraped from the plate and the cell lysate transferred to an Eppendorf tube and then clarified by a single spin at 10 000 rpm for 10 minutes. The protein concentration of each lysate was determined (BCA kit, Thermo Scientific) prior to the addition of loading buffer (Invitrogen) and reducing agent (Invitrogen). 10 μg protein of each lysate was loaded on an SDS/PAGE gel and run at 165V for 2 hours. Following transfer to a PVDF membrane (iBlot2, Thermo Fisher Scientific), the membrane was blocked in Tris-buffered saline containing 0.1% Tween-20 (TBS-T) and supplemented with 5% powdered milk for 1 hour. Membranes were then probed with EGFR and tubulin (loaded control) primary antibodies in TBS-T containing 3% bovine serum albumin (BSA) overnight at 4° C. Membranes were washed thrice with TBS-T before incubation with secondary antibody in TBS-T containing 3% bovine serum albumin (BSA) and incubated for 1 hour at room temperature. Following 3 further washes with TBS, membrane proteins of interest were detected by enzyme-linked chemiluminescence (ECL) using a Chemidoc (Bio-Rad).

Chain of EGFR L858R/T790M/C797S triple mutant (H520*) (P00533 25-1210 T790M/C797S/L858R): as the sequence (P00533 25-1210 T790M/C797S/L858R) above

| Compound | EGFR protein remaining, EGFR L858R/T790M/C797S triple mutant [1] | pIC50 (EGFR Exon20NPG) | pIC50 (EGFR WT) | pIC50 (EGFR L858R/T790M/C797S) | pIC50 (EGFR L858R/T790M) | EGFR protein remaining, EGFR L858R/T790M double mutant [2] |
| --- | --- | --- | --- | --- | --- | --- |
| Cc1ncsc1-c1ccc(CNC(=O)[C@@H]2C[C@@H](O)CN2C(=O)[C@@H](NC(=O)COCCOCCOCCOCCOCC#Cc2cccc3c2C(=O)N(C(C(=O)Nc2nccs2)c2cc(F)ccc2O)C3)C(C)(C)C)cc1 (some centres unmarked) [compound 255] | B (≤80% and >50% EGFR protein remaining after 72 hours of incubation with the test compound at a concentration between 300 nM and 10 nM) | 5.33 | 6.24 | 6.85 | 6.08 | C (>80% EGFR protein remaining after 72 hours of incubation with the test compound at a concentration of 300 nM) |
| Cc1ncsc1-c1ccc(CNC(=O)[C@@H]2C[C@@H](O)CN2C(=O)[C@H](C(C)C)N2Cc3ccccc3C2=O)c(OCCOCCOCC#Cc2cccc3c2C(=O)N([C@@H](C(=O)Nc2nccs2)c2cc(F)ccc2O)C3)c1 (single isomer, unassigned) [Example 257] | C (>80% EGFR protein remaining after 72 hours of incubation with the test compound at a concentration of 300 nM) | < 4.52 | 5.24 | 5.57 | < 4.52 | C (>80% EGFR protein remaining after 72 hours of incubation with the test compound at a concentration of 300 nM) |
| O=C1CCC(N2C(=O)c3ccc(OCCOCCOCCOCCCc4cccc5c4C(=O)N(C(C(=O)Nc4nccs4)c4cc(F)ccc4O)C5)cc3C2=O)C(=O)N1 (centres unmarked) [Example 283, 2-(7-(3-(2-(2-(2-((2-(2,6-dioxopiperidin-3-yl)-1,3-dioxoisoindolin-5-yl)oxy)ethoxy)ethoxy)ethoxy)propyl)-1-oxoisoindolin-2-yl)-2-(5-fluoro-2-hydroxyphenyl)-N-(thiazol-2-yl)acetamide] | C (>80% EGFR protein remaining after 72 hours of incubation with the test compound at a concentration of 300 nM) | 5.34 | 5.92 | 6.09 | 5.55 | – |
| O=C1CCC(N2C(=O)c3ccc(N4CCN(CC5CCN(CCCc6cccc7c6C(=O)N(C(C(=O)Nc6nccs6)c6cc(F)ccc6O)C7)CC5)CC4)cc3C2=O)C(=O)N1 (centres unmarked) [compound 294] | C (>80% EGFR protein remaining after 72 hours of incubation with the test compound at a concentration of 300 nM) | – | 5.46 | 6.77 | 6.09 | – |
| Cc1ncsc1-c1ccc([C@H](C)NC(=O)[C@@H]2C[C@@H](O)CN2C(=O)[C@@H](NC(=O)COCCOCCOCCc2ccc(OC3CCN(c4nccc(Nc5cc6c(cn5)nc(C)n6C(C)C)n4)CC3)cc2)C(C)(C)C)cc1 [Example 291, (2S,4R)-1-((S)-2-(Tert-butyl)-14-(4-((1-(4-((1-isopropyl-2-methyl-1H-imidazo[4,5-c]pyridin-6-yl)amino)pyrimidin-2-yl)piperidin-4-yl)oxy)phenyl)-4-oxo-6,9,12-trioxa-3-azatetradecanoyl)-4-hydroxy-N—((S)-1-(4-(4-methylthiazol-5-yl)phenyl)ethyl)pyrrolidine-2-carboxamide] | C (>80% EGFR protein remaining after 72 hours of incubation with the test compound at a concentration of 300 nM) | – | 4.85 | < 4.22 | < 4.22 | – |
| Cc1ncsc1-c1ccc([C@H](C)NC(=O)[C@@H]2C[C@@H](O)CN2C(=O)[C@@H](NC(=O)COCCOCCOCCOCCOCCOCCOCC#Cc2cccc3c2C(=O)N(C(C(=O)Nc2nccs2)c2cc(F)ccc2O)C3)C(C)(C)C)cc1 (some centres unmarked) [compound 299] | C (>80% EGFR protein remaining after 72 hours of incubation with the test compound at a concentration of 300 nM) | – | 6.62 | 6.70 | 5.34 | – |
| Cc1ncsc1-c1ccc([C@H](C)NC(=O)[C@H]2C[C@H](O)CN2C(=O)[C@@H](NC(=O)COCCOCCOCCOCCOCCOc2ccc(-c3nccc(Nc4cc5c(cn4)nc(C)n5C(C)C)n3)cc2)C(C)(C)C)cc1 [compound 280] | C (>80% EGFR protein remaining after 72 hours of incubation with the test compound at a concentration of 300 nM) | < 4.52 | < 4.52 | < 4.52 | < 4.52 | – |
| Cc1ncsc1-c1ccc([C@H](C)NC(=O)[C@H]2C[C@H](O)CN2C(=O)[C@@H](NC(=O)COCCOCCOCCOCCOC2CCN(c3nccc(Nc4cc5c(cn4)nc(C)n5C(C)C)n3)CC2)C(C)(C)C)cc1 [compound 284] | C (>80% EGFR protein remaining after 72 hours of incubation with the test compound at a concentration of 300 nM) | 4.52 | 4.85 | 4.92 | < 4.52 | – |
| O=C1CCC(N2C(=O)c3ccc(N4CCC(CN5CCC(OCCCc6cccc7c6C(=O)N(C(C(=O)Nc6nccs6)c6cc(F)ccc6O)C7)CC5)CC4)cc3C2=O)C(=O)N1 (centres unmarked) [compound 297] | B (≤80% and >50% EGFR protein remaining after 72 hours of incubation with the test compound at a concentration between 300 nM and 10 nM) | – | 5.74 | 6.51 | 5.74 | – |
| O=C1CCC(N2C(=O)c3ccc(N4CCC(CN5CCC(OC/C=C/c6cccc7c6C(=O)N(C(C(=O)Nc6nccs6)c6cc(F)ccc6O)C7)CC5)CC4)cc3C2=O)C(=O)N1 (centres unmarked) [compound 298] | C (>80% EGFR protein remaining after 72 hours of incubation with the test compound at a concentration of 300 nM) | – | 5.80 | 6.27 | 5.85 | – |
